pIC50: −log10 of the molar value. In brackets after ≈: the same amount, converted by molar mass. Activity calls are given as the source filed them. The calls are words filed in the database; no cut-off is given here.
Columns and labels:
[1] = system: Staphylococcus aureus; assay: Resistance index, ratio of MIC for antibacterial activity against Staphylococcus aureus ATCC 25923 measured after 60 days of serial passage to MIC for antibacterial activity against Staphylococcus aureus ATCC25923 measured after 16 hrs; type: functional
[2] = system: Staphylococcus aureus; assay: Antibacterial activity against methicillin resistant Staphylococcus aureus ATCC 43300 persisters assessed as reduction in colony formation at 40 ug/ml incubated for 8 hrs by colony counting method; type: functional, organism-based; conditions: dose 40.0 µg/ml
[3] = system: Staphylococcus aureus; assay: Binding affinity to CshA in Staphylococcus aureus ATCC 25923 assessed as protein labeling at 5 uM incubated for 1 hr in presence of (E)-6-(2-fluorostyryl)-2,4-dihydroxy-3-(3-methylbut-2-enyl)benzoic acid followed by UV irradiation for 20 mins by pull down based in-gel fluorescence scanning analysis; conditions: time 80.0 min
[4] = system: Staphylococcus aureus; assay: Binding affinity to YidC in methicillin resistant Staphylococcus aureus ATCC 43300 assessed as protein labeling at 5 uM incubated for 1 hr in presence of (E)-6-(2-fluorostyryl)-2,4-dihydroxy-3-(3-methylbut-2-enyl)benzoic acid followed by UV irradiation for 20 mins by pull down based in-gel fluorescence scanning analysis; conditions: time 80.0 min
[5] = system: Staphylococcus aureus; assay: Binding affinity to YidC in Staphylococcus aureus ATCC 25923 assessed as protein labeling at 5 uM incubated for 1 hr followed by UV irradiation for 20 mins by pull down based in-gel fluorescence scanning analysis; conditions: time 80.0 min
[6] = system: Staphylococcus aureus; assay: Binding affinity to YidC in methicillin resistant Staphylococcus aureus ATCC 43300 assessed as protein labeling at 5 uM incubated for 1 hr followed by UV irradiation for 20 mins by pull down based in-gel fluorescence scanning analysis; conditions: time 80.0 min
[7] = system: Staphylococcus aureus; assay: Binding affinity to modA in Staphylococcus aureus ATCC 25923 assessed as protein labeling at 5 uM incubated for 1 hr in presence of (E)-6-(2-fluorostyryl)-2,4-dihydroxy-3-(3-methylbut-2-enyl)benzoic acid followed by UV irradiation for 20 mins by pull down based in-gel fluorescence scanning analysis; conditions: time 80.0 min
[8] = system: Staphylococcus aureus; assay: Binding affinity to moaB in methicillin resistant Staphylococcus aureus ATCC 43300 assessed as protein labeling at 5 uM incubated for 1 hr followed by UV irradiation for 20 mins by pull down based in-gel fluorescence scanning analysis; conditions: time 80.0 min
[9] = system: Staphylococcus aureus; assay: Binding affinity to PgsA in methicillin resistant Staphylococcus aureus ATCC 43300 assessed as protein labeling at 5 uM incubated for 1 hr followed by UV irradiation for 20 mins by pull down based in-gel fluorescence scanning analysis; conditions: time 80.0 min
[10] = system: Staphylococcus aureus; assay: Binding affinity to moaB in Staphylococcus aureus ATCC 25923 assessed as protein labeling at 5 uM incubated for 1 hr in presence of (E)-6-(2-fluorostyryl)-2,4-dihydroxy-3-(3-methylbut-2-enyl)benzoic acid followed by UV irradiation for 20 mins by pull down based in-gel fluorescence scanning analysis; conditions: time 80.0 min
[11] = system: Staphylococcus aureus; assay: Binding affinity to rpsH in Staphylococcus aureus ATCC 25923 assessed as protein labeling at 5 uM incubated for 1 hr in presence of (E)-6-(2-fluorostyryl)-2,4-dihydroxy-3-(3-methylbut-2-enyl)benzoic acid followed by UV irradiation for 20 mins by pull down based in-gel fluorescence scanning analysis; conditions: time 80.0 min
[12] = system: Staphylococcus aureus; assay: Binding affinity to PgsA in Staphylococcus aureus ATCC 25923 assessed as protein labeling at 5 uM incubated for 1 hr in presence of (E)-6-(2-fluorostyryl)-2,4-dihydroxy-3-(3-methylbut-2-enyl)benzoic acid followed by UV irradiation for 20 mins by pull down based in-gel fluorescence scanning analysis; conditions: time 80.0 min
[13] = system: Staphylococcus aureus; assay: Binding affinity to modA in methicillin resistant Staphylococcus aureus ATCC 43300 assessed as protein labeling at 5 uM incubated for 1 hr in presence of (E)-6-(2-fluorostyryl)-2,4-dihydroxy-3-(3-methylbut-2-enyl)benzoic acid followed by UV irradiation for 20 mins by pull down based in-gel fluorescence scanning analysis; conditions: time 80.0 min
[14] = system: Staphylococcus aureus; assay: Binding affinity to HsIU/ClpY in methicillin resistant Staphylococcus aureus ATCC 43300 assessed as protein labeling at 5 uM incubated for 1 hr in presence of (E)-6-(2-fluorostyryl)-2,4-dihydroxy-3-(3-methylbut-2-enyl)benzoic acid followed by UV irradiation for 20 mins by pull down based in-gel fluorescence scanning analysis; conditions: time 80.0 min
[15] = system: Staphylococcus aureus; assay: Binding affinity to YidC in Staphylococcus aureus ATCC 25923 assessed as protein labeling at 5 uM incubated for 1 hr in presence of (E)-6-(2-fluorostyryl)-2,4-dihydroxy-3-(3-methylbut-2-enyl)benzoic acid followed by UV irradiation for 20 mins by pull down based in-gel fluorescence scanning analysis; conditions: time 80.0 min
[16] = system: Staphylococcus aureus; assay: Binding affinity to CshA in methicillin resistant Staphylococcus aureus ATCC 43300 assessed as protein labeling at 5 uM incubated for 1 hr followed by UV irradiation for 20 mins by pull down based in-gel fluorescence scanning analysis; conditions: time 80.0 min
[17] = system: Staphylococcus aureus; assay: Binding affinity to PgsA in Staphylococcus aureus ATCC 25923 assessed as protein labeling at 5 uM incubated for 1 hr followed by UV irradiation for 20 mins by pull down based in-gel fluorescence scanning analysis; conditions: time 80.0 min
[18] = system: Staphylococcus aureus; assay: Binding affinity to moaB in methicillin resistant Staphylococcus aureus ATCC 43300 assessed as protein labeling at 5 uM incubated for 1 hr in presence of (E)-6-(2-fluorostyryl)-2,4-dihydroxy-3-(3-methylbut-2-enyl)benzoic acid followed by UV irradiation for 20 mins by pull down based in-gel fluorescence scanning analysis; conditions: time 80.0 min
[19] = system: Staphylococcus aureus; assay: Binding affinity to HsIU/ClpY in methicillin resistant Staphylococcus aureus ATCC 43300 assessed as protein labeling at 5 uM incubated for 1 hr followed by UV irradiation for 20 mins by pull down based in-gel fluorescence scanning analysis; conditions: time 80.0 min
[20] = system: Staphylococcus aureus; assay: Antibacterial activity against Staphylococcus aureus ATCC 25923 assessed as reduction in bacterial growth incubated for 16 hrs by broth microdilution method; type: functional
[21] = system: Staphylococcus aureus; assay: Binding affinity to CshA in Staphylococcus aureus ATCC 25923 assessed as protein labeling at 5 uM incubated for 1 hr followed by UV irradiation for 20 mins by pull down based in-gel fluorescence scanning analysis; conditions: time 80.0 min
[22] = system: Staphylococcus aureus; assay: Binding affinity to rpsH in methicillin resistant Staphylococcus aureus ATCC 43300 assessed as protein labeling at 5 uM incubated for 1 hr in presence of (E)-6-(2-fluorostyryl)-2,4-dihydroxy-3-(3-methylbut-2-enyl)benzoic acid followed by UV irradiation for 20 mins by pull down based in-gel fluorescence scanning analysis; conditions: time 80.0 min
[23] = system: Staphylococcus aureus; assay: Binding affinity to His-tagged recombinant Staphylococcus aureus PgsA expressed in Escherichia coli Rosetta DE3 at 5 uM incubated for 1 hr in presence of (E)-6-(2-fluorostyryl)-2,4-dihydroxy-3-(3-methylbut-2-enyl)benzoic acid followed by UV irradiation for 20 mins by in-gel fluorescence scanning analysis; conditions: time 80.0 min
[24] = system: Staphylococcus aureus; assay: Bacteriostatic activity against Staphylococcus aureus ATCC 25923 assessed as reduction in bacterial growth at 4 ug/ml incubated for 16 hrs by Kirby-Bauer test method; type: functional, organism-based; conditions: dose 4.0 µg/ml
[25] = system: Staphylococcus aureus; assay: Binding affinity to rpsH in Staphylococcus aureus ATCC 25923 assessed as protein labeling at 5 uM incubated for 1 hr followed by UV irradiation for 20 mins by pull down based in-gel fluorescence scanning analysis; conditions: time 80.0 min
[26] = system: Staphylococcus aureus; assay: Binding affinity to modA in Staphylococcus aureus ATCC 25923 assessed as protein labeling at 5 uM incubated for 1 hr followed by UV irradiation for 20 mins by pull down based in-gel fluorescence scanning analysis; conditions: time 80.0 min
[27] = system: Staphylococcus aureus; assay: Binding affinity to rpsH in methicillin resistant Staphylococcus aureus ATCC 43300 assessed as protein labeling at 5 uM incubated for 1 hr followed by UV irradiation for 20 mins by pull down based in-gel fluorescence scanning analysis; conditions: time 80.0 min
[28] = system: Staphylococcus aureus; assay: Binding affinity to PgsA in methicillin resistant Staphylococcus aureus ATCC 43300 assessed as protein labeling at 5 uM incubated for 1 hr in presence of (E)-6-(2-fluorostyryl)-2,4-dihydroxy-3-(3-methylbut-2-enyl)benzoic acid followed by UV irradiation for 20 mins by pull down based in-gel fluorescence scanning analysis; conditions: time 80.0 min
[29] = system: Staphylococcus aureus; assay: Binding affinity to HsIU/ClpY in Staphylococcus aureus ATCC 25923 assessed as protein labeling at 5 uM incubated for 1 hr in presence of (E)-6-(2-fluorostyryl)-2,4-dihydroxy-3-(3-methylbut-2-enyl)benzoic acid followed by UV irradiation for 20 mins by pull down based in-gel fluorescence scanning analysis; conditions: time 80.0 min
[30] = system: Staphylococcus aureus; assay: Binding affinity to CshA in methicillin resistant Staphylococcus aureus ATCC 43300 assessed as protein labeling at 5 uM incubated for 1 hr in presence of (E)-6-(2-fluorostyryl)-2,4-dihydroxy-3-(3-methylbut-2-enyl)benzoic acid followed by UV irradiation for 20 mins by pull down based in-gel fluorescence scanning analysis; conditions: time 80.0 min
[31] = system: Staphylococcus aureus; assay: Binding affinity to moaB in Staphylococcus aureus ATCC 25923 assessed as protein labeling at 5 uM incubated for 1 hr followed by UV irradiation for 20 mins by pull down based in-gel fluorescence scanning analysis; conditions: time 80.0 min
[32] = system: Staphylococcus aureus; assay: Binding affinity to modA in methicillin resistant Staphylococcus aureus ATCC 43300 assessed as protein labeling at 5 uM incubated for 1 hr followed by UV irradiation for 20 mins by pull down based in-gel fluorescence scanning analysis; conditions: time 80.0 min
[33] = system: Staphylococcus aureus; assay: Binding affinity to HsIU/ClpY in Staphylococcus aureus ATCC 25923 assessed as protein labeling at 5 uM incubated for 1 hr followed by UV irradiation for 20 mins by pull down based in-gel fluorescence scanning analysis; conditions: time 80.0 min
[34] = system: Staphylococcus aureus; assay: Bacteriostatic activity against Staphylococcus aureus ATCC 25923 assessed as reduction in bacterial growth at 128 ug/ml incubated for 16 hrs by Kirby-Bauer test method; type: functional, organism-based; conditions: dose 128.0 µg/ml
[35] = system: Staphylococcus aureus; assay: Antibacterial activity against methicillin resistant Staphylococcus aureus ATCC 43300 persisters assessed as reduction in colony formation at 40 ug/ml incubated for 8 hrs in presence of 50 ug/ml Ca2+ by colony counting method; type: functional, organism-based; conditions: dose 40.0 µg/ml
[36] = system: Staphylococcus aureus; assay: Antibacterial activity against methicillin resistant Staphylococcus aureus ATCC 43300 persisters assessed as reduction in colony formation at 4 ug/ml incubated for 8 hrs by colony counting method; type: functional, organism-based; conditions: dose 4.0 µg/ml
[37] = system: RAW264.7; assay: Cytotoxicity against mouse RAW264.7 cells assessed as reduction in cell viability incubated for 48 hrs by MTT assay; type: cell-based; conditions: RAW264.7, 48 h
[38] = system: Staphylococcus aureus; assay: Antibacterial activity against methicillin resistant Staphylococcus aureus ATCC 43300 persisters assessed as eradication of colony formation at 2X MIC incubated for 4 hrs by colony counting method; type: functional, organism-based

Compound | Activity [5] | Activity [6] | Activity [8] | Activity [9] | Activity [16] | Activity [17] | Activity [19] | Activity [21] | Activity [25] | Activity [26] | Activity [27] | Activity [31] | Activity [32] | Activity [33] | other results
O=C(O)c1cn(C2CC2)c2cc(N3CCNCC3)c(F)cc2c1=O [CIPROFLOXACIN] |  |  |  |  |  |  |  |  |  |  |  |  |  |  | Ratio [1]: 50; Activity [2]: Active
C#CCCC1(CCOc2ccc(/C=C/c3cc(OC)c(CC=C(C)C)c(O)c3C(=O)O)c(F)c2)N=N1 | Active | Active | Active | Active | Active | Active | Active | Active | Active | Active | Active | Active | Active | Active | Activity [3]: inactive; Activity [4]: inactive; Activity [7]: inactive; Activity [10]: inactive; Activity [11]: inactive; Activity [12]: inactive; Activity [13]: inactive; Activity [14]: inactive; Activity [15]: inactive; Activity [18]: inactive; MIC [20]: 8 µg/mL (≈ 16.2 µM); Activity [22]: inactive; Activity [23]: inactive; Activity [24]: Active; Activity [28]: inactive; Activity [29]: inactive; Activity [30]: inactive
C#CCCC1(CCOc2ccccc2)N=N1 | inactive | inactive | inactive | inactive | inactive | inactive | inactive | inactive | inactive | inactive | inactive | inactive | inactive | inactive | Activity [34]: inactive
CCCCCCCCCC(=O)N[C@@H](Cc1c[nH]c2ccccc12)C(=O)N[C@H](CC(N)=O)C(=O)N[C@@H](CC(=O)O)C(=O)N[C@@H]1C(=O)NCC(=O)N[C@@H](CCCN)C(=O)N[C@@H](CC(=O)O)C(=O)N[C@H](C)C(=O)N[C@@H](CC(=O)O)C(=O)NCC(=O)N[C@H](CO)C(=O)N[C@@H]([C@H](C)CC(=O)O)C(=O)N[C@@H](CC(=O)c2ccccc2N)C(=O)O[C@@H]1C |  |  |  |  |  |  |  |  |  |  |  |  |  |  | Activity [35]: Active
CO[C@H]1/C=C/O[C@@]2(C)Oc3c(C)c(O)c4c(O)c(c(/C=N/N5CCN(C)CC5)c(O)c4c3C2=O)NC(=O)/C(C)=C\C=C\[C@H](C)[C@H](O)[C@@H](C)[C@@H](O)[C@@H](C)[C@H](OC(C)=O)[C@@H]1C |  |  |  |  |  |  |  |  |  |  |  |  |  |  | Activity [36]: Active
COc1cc(/C=C/c2ccc(C(F)(F)F)cc2)c(C(=O)O)c(O)c1CC=C(C)C |  |  |  |  |  |  |  |  |  |  |  |  |  |  | pIC50 [37]: 4.30; Activity [38]: Active
